Test system: at least one muscarinic receptor, M1, M2, M3, M4
Assay: Muscarinic modulation activity (Table 3)
Format: cell-based
Parameters: key: +++: exhibited muscarinic modulation activity for at least one muscarinic receptor, M1, M2, M3, M4, at a concentration of less than 5 μM; ++: exhibited muscarinic modulation activity for at least one muscarinic receptor, M1, M2, M3, M4, at a concentration of between 30 μM and 5 μM; +: exhibited muscarinic modulation activity for at least one muscarinic receptor, M1, M2, M3, M4, at a concentration of greater than 30 μM; −: were not assayed or did not exhibit muscarinic modulation activity for at least one muscarinic receptor, M1, M2, M3, M4, at the concentration at which the assay was performed
Details: concentration at which modulation of at least one muscarinic receptor, M1, M2, M3, M4, was exhibited; CHO cells
Protocol: CHO cells expressing muscarinic receptors (M1 to M5) are grown as monolayers in tissue culture flasks at 37° C. in a humidified atmosphere containing 5% CO2 and passaged every 3-5 days. The growth media is Dulbecco's modified eagles medium (DMEM, Gibco Cat#12430-054), containing 25 mM Hepes and supplemented with Fetal Bovine Serum (Hyclone, cat#SH30071.03), 0.1 mM of MEM non-essential amino acids (GIBCO, Cat#11140-050), 1 mM MEM Sodium Pyruvate (GIBCO Cat#11360-070) and 100 units/ml of Penicillin G and 100 μg/ml of Streptomycin (GIBCO Cat#15140-122). The recombinant muscarinic receptor cell lines are grown under antibiotic pressure with media containing 25 μg/ml zeocin and 500 μg/ml G418 (M1-CHO), 4 μg/ml puromycin, 50 μg/ml zeocin and 2.5 μg/ml blasticidin (M2 and M4-CHO) or 50 μg/ml zeocin and 4 μg/ml puromycin (M3 and M5-CHO).
Cells are harvested at 80-90% confluence using Versene (GIBCO Cat#15040-066), collected by centrifugation and seeded 18-24 hrs prior to running the calcium assay at a density of 5,000-10,000 cells/well in […], clear-bottomed 384-well plates (BD Biocoat, poly-D-lysine, Cat#356663). The day of the experiment, the cells are washed with a plate washer (Bioteck Instruments, ELX 405) using bath1 buffer (140-mM NaCl, 4.5-mM KCl, 2-mM CaCl2, 1-mM MgCl2, 10-mM Hepes-Na, 10-mM Glucose, pH 7.4, with NaOH) containing 1 mM Probenecid. Next, the calcium dye Fluo-3 (25 μl/well of Fluo-3 AM at 4 μM, Molecular Probes F-1241, in Bath 1 buffer containing 1 mM Probenecid) is added to the 25 μl of Bath 1 remaining in each well after the plate wash and the dye is loaded at 37° C. in the tissue culture incubator for 60-90 min. The fluorescent dye is removed using the plate washer with Bath 1 containing 1 mM Probenecid, leaving 25 μl/well of this solution after the wash. Alternatively, cells can be loaded with the calcium indicator from Molecular Devices (Calcium 3 Assay Reagents, Cat #R7181) adding 5 μl of a 5× solution dye in Bath 1 containing 1 mM Probenecid (10 ml per dye flask cat#R7182 to generate a solution […]) to 20 μl of the same buffer. After loading for 60 min. the experiment can be run without having to remove the dye.
Compounds are prepared at a 2× fold concentration in a 96-well plate (round bottom, Costar Corning cat#3656), by reconstituting the pre-spotted compounds in bath 1 containing 1 mM probenecid. The final concentration DMSO is 0.5%, and the amount of DMSO is normalized across the assay plate. To determine an agonist action of the compounds on muscarinic receptors, the reconstituted compounds are added (25 μl compound/well) to the cell assay plate (containing 25 μl/well) using the multi-channel robotic system of the FLIPR 3 Instrument (Molecular Devices, Sunnyvale, Calif.). To determine a functional inhibitory action of the compounds on muscarinic receptors, the reconstituted compounds are added (25 μl compound/well) to the assay plate and pre-incubated for 15 min prior to adding 25 μl of Carbachol at 3× the EC80 for each muscarinic subtype. Alternatively, the compounds can be co-applied simultaneously with the agonist. In both assay modes, the fluorescence is recorded for 60 sec (excitation wavelength is […] and emission wavelength 540 nm) using the FLIPR 3 instrument.
The potency, efficacy and selectivity of the muscarinic compounds were evaluated by screening the compound activity across the whole family (M1 to M5 cells).
CHO cells expressing muscarinic receptors (M1 to M5) and containing a gene reporter system β-Lactamase) with transcriptional control mediated by calcium release (NFAT activation). See Zlokarnik, G; Negulescu, P. A.; Knapp, T. E.; Mere, L; Burres, N; Feng, L; Whitney, M; Roemer, K; Tsien, R. Y. Quantitation of transcription and clonal selection of single living cells with β-lactamase as reporter. Science, 1998 Jan. 2, 279(5347):84-8. The cells are grown as monolayers in tissue culture flasks at 37° C. in a humidified atmosphere containing 5% CO2 and passaged every 3-5 days. […]

C1=CC2CC1CC2CN1CCN(c2ccccn2)CC1 (centres unmarked) [Compound 48, 1-(5-bicyclo[2.2.1]hept-2-enylmethyl)-4-(2-pyridyl)piperazine]
ACTIVITY (muscarinic modulation activity): ++ (exhibited muscarinic modulation activity for at least one muscarinic receptor, M1, M2, M3, M4, at a concentration of between 30 μM and 5 μM)

CCOC(=O)N1C2CCC1CC(N1CCC(c3nc(OC)cc(OC)n3)CC1)C2 (centres unmarked) [Compound 57, 3-[4-(4,6-dimethoxypyrimidin-2-yl)-1-piperidyl]-8-azabicyclo[3.2.1]octane-8-carboxylic acid ethyl ester]
ACTIVITY (muscarinic modulation activity): +++ (exhibited muscarinic modulation activity for at least one muscarinic receptor, M1, M2, M3, M4, at a concentration of less than 5 μM)

CCOC(=O)N1C2CCC1CC(N1CCN(c3ccc(C#N)cn3)CC1)C2 (centres unmarked) [Compound 66, 3-[4-(5-cyano-2-pyridyl)piperazin-1-yl]-8-azabicyclo[3.2.1]octane-8-carboxylic acid ethyl ester]
ACTIVITY (muscarinic modulation activity): +++ (exhibited muscarinic modulation activity for at least one muscarinic receptor, M1, M2, M3, M4, at a concentration of less than 5 μM)

N#Cc1ccc(N2CCN(C3CC4CCC3C4)CC2)nc1 (centres unmarked) [Compound 19, 6-(4-norbornan-2-ylpiperazin-1-yl)nicotinonitrile]
ACTIVITY (muscarinic modulation activity): ++ (exhibited muscarinic modulation activity for at least one muscarinic receptor, M1, M2, M3, M4, at a concentration of between 30 μM and 5 μM)

c1ccc2c(c1)nnn2C1CCN(C2CC3CCC(C3)C2)CC1 (centres unmarked) [Compound 9, 1-[1-(3-bicyclo[3.2.1]octyl)-4-piperidyl]-1H-benzotriazole]
ACTIVITY (muscarinic modulation activity): −

C1=CC2CC1CC2CN1CCN(c2ncccn2)CC1 (centres unmarked) [Compound 76, 2-[4-(5-bicyclo[2.2.1]hept-2-enylmethyl)piperazin-1-yl]pyrimidine]
ACTIVITY (muscarinic modulation activity): +++ (exhibited muscarinic modulation activity for at least one muscarinic receptor, M1, M2, M3, M4, at a concentration of less than 5 μM)

Cc1cnc(C)c(N2CCN(C3CC4CCC3C4)CC2)n1 (centres unmarked) [Compound 40, 2,5-dimethyl-3-(4-norbornan-2-ylpiperazin-1-yl)-pyrazine]
ACTIVITY (muscarinic modulation activity): −

CCOC(=O)N1C2CCC1CC(N1CCN(c3nc(C(F)(F)F)ccc3C#N)CC1)C2 (centres unmarked) [Compound 24, 3-[4-[3-cyano-6-(trifluoromethyl)-2-pyridyl]piperazin-1-yl]-8-azabicyclo[3.2.1]octane-8-carboxylic acid ethyl ester]
ACTIVITY (muscarinic modulation activity): +++ (exhibited muscarinic modulation activity for at least one muscarinic receptor, M1, M2, M3, M4, at a concentration of less than 5 μM)

N#Cc1ccc(C(F)(F)F)nc1N1CCN(CC2CC3CCC2C3)CC1 (centres unmarked) [Compound 8, 2-[4-(norbornan-2-ylmethyl)piperazin-1-yl]-6-(trifluoromethyl)nicotinonitrile]
ACTIVITY (muscarinic modulation activity): −

CCOC(=O)N1C2CCC1CC(N1CCN(c3ccc(C(C)=O)cn3)CC1)C2 (centres unmarked) [Compound 51, 3-[4-(5-acetyl-2-pyridyl)piperazin-1-yl]-8-azabicyclo[3.2.1]octane-8-carboxylic acid ethyl ester]
ACTIVITY (muscarinic modulation activity): +++ (exhibited muscarinic modulation activity for at least one muscarinic receptor, M1, M2, M3, M4, at a concentration of less than 5 μM)

O=[N+]([O-])c1cccnc1N1CCN(CC2CC3C=CC2C3)CC1 (centres unmarked) [Compound 1, 1-(5-bicyclo[2.2.1]hept-2-enylmethyl)-4-(3-nitro-2-pyridyl)-piperazine]
ACTIVITY (muscarinic modulation activity): ++ (exhibited muscarinic modulation activity for at least one muscarinic receptor, M1, M2, M3, M4, at a concentration of between 30 μM and 5 μM)

Cc1nccnc1N1CCN(CC2CC3C=CC2C3)CC1 (centres unmarked) [Compound 17, 2-[4-(5-bicyclo[2.2.1]hept-2-enylmethyl)piperazin-1-yl]-3-methyl-pyrazine]
ACTIVITY (muscarinic modulation activity): +++ (exhibited muscarinic modulation activity for at least one muscarinic receptor, M1, M2, M3, M4, at a concentration of less than 5 μM)

Cc1cccc(N2CCN(C3CC4CCC3C4)CC2)n1 (centres unmarked) [Compound 77, 1-(6-methyl-2-pyridyl)-4-norbornan-2-yl-piperazine]
ACTIVITY (muscarinic modulation activity): −

3-[4-(3-cyanopyrazin-2-yl)piperazin-1-yl]-8-azabicyclo[3.2.1]octane-8-carboxylic acid ethyl ester [Compound 45]
ACTIVITY (muscarinic modulation activity): + (exhibited muscarinic modulation activity for at least one muscarinic receptor, M1, M2, M3, M4, at a concentration of greater than 30 μM)

Cc1ccc(C#N)c(N2CCN(CC3CC4C=CC3C4)CC2)n1 (centres unmarked) [Compound 62, 2-[4-(5-bicyclo[2.2.1]hept-2-enylmethyl)piperazin-1-yl]-6-methyl-nicotinonitrile]
ACTIVITY (muscarinic modulation activity): +++ (exhibited muscarinic modulation activity for at least one muscarinic receptor, M1, M2, M3, M4, at a concentration of less than 5 μM)

Clc1cccnc1N1CCN(CC2CC3C=CC2C3)CC1 (centres unmarked) [Compound 52, 1-(5-bicyclo[2.2.1]hept-2-enylmethyl)-4-(3-chloro-2-pyridyl)-piperazine]
ACTIVITY (muscarinic modulation activity): ++ (exhibited muscarinic modulation activity for at least one muscarinic receptor, M1, M2, M3, M4, at a concentration of between 30 μM and 5 μM)

Cc1cccnc1N1CCN(C2CC3CCC2C3)CC1 (centres unmarked) [Compound 60, 1-(3-methyl-2-pyridyl)-4-norbornan-2-yl-piperazine]
ACTIVITY (muscarinic modulation activity): + (exhibited muscarinic modulation activity for at least one muscarinic receptor, M1, M2, M3, M4, at a concentration of greater than 30 μM)

CCOC(=O)N1C2CCC1CC(N1CCN(c3ncc(-c4ccccc4)cc3C#N)CC1)C2 (centres unmarked) [Compound 33, 3-[4-(3-cyano-5-phenyl-2-pyridyl)piperazin-1-yl]-8-azabicyclo[3.2.1]octane-8-carboxylic acid ethyl ester]
ACTIVITY (muscarinic modulation activity): + (exhibited muscarinic modulation activity for at least one muscarinic receptor, M1, M2, M3, M4, at a concentration of greater than 30 μM)

CCOC(=O)N1C2CCC1CC(N1CCN(c3ncc(CC)cn3)CC1)C2 (centres unmarked) [Compound 67, 3-[4-(5-ethylpyrimidin-2-yl)piperazin-1-yl]-8-azabicyclo[3.2.1]octane-8-carboxylic acid ethyl ester]
ACTIVITY (muscarinic modulation activity): +++ (exhibited muscarinic modulation activity for at least one muscarinic receptor, M1, M2, M3, M4, at a concentration of less than 5 μM)

FC(F)(F)c1cccnc1N1CCN(CC2CC3C=CC2C3)CC1 (centres unmarked) [Compound 69, 1-(5-bicyclo[2.2.1]hept-2-enylmethyl)-4-[3-(trifluoromethyl)-2-pyridyl]-piperazine]
ACTIVITY (muscarinic modulation activity): +++ (exhibited muscarinic modulation activity for at least one muscarinic receptor, M1, M2, M3, M4, at a concentration of less than 5 μM)

— patent US7820817B2, “Modulators of muscarinic receptors” (Vertex Pharmaceuticals Incorporated, priority 2004, dated 2010)
